Test results published in ChEMBL document CHEMBL1136921, “Benzylguanidines and other galegine analogues inducing weight loss in mice” (J Med Chem, 2009).
Activity calls are given as the source filed them. No cut-off for these calls is given here.

Key:
[1] = tested on: Mus musculus; assay: Antidiabetic activity in lean normal BALB/c mouse assessed as effect on blood lactate level at equimolar dose of 0.5 mmol/kg galegine administered daily through diet for 7 days; assay type: functional, organism-based
[2] = tested on: Mus musculus; assay: Antiobesity activity in lean normal BALB/c mouse assessed as change in average daily food intake at equimolar dose of 0.5 mmol/kg galegine administered daily through diet for 7 days; assay type: functional, organism-based
[3] = tested on: Mus musculus; assay: Hypoglycemic activity in lean normal BALB/c mouse assessed as blood glucose level at equimolar dose of 0.5 mmol/kg galegine administered daily through diet for 7 days; assay type: functional, organism-based
[4] = tested on: Mus musculus; assay: Antiobesity activity in lean normal BALB/c mouse assessed as change in average daily weight at equimolar dose of 0.5 mmol/kg galegine administered daily through diet for 7 days; assay type: functional, organism-based
[5] = tested on: Mus musculus; assay: Hypoglycemic activity in lean normal BALB/c mouse assessed as blood glucose level at 0.72 mmol/kg/day administered through diet for 7 days relative to time-matched control; assay type: functional
[6] = Metabolic stability in ob/ob mouse liver microsomes assessed as oxidative hydroxylation at 50 uM after 45 mins by HPLC-MS analysis; assay type: ADME, Microsome; conditions: 0.75 h
[7] = tested on: Mus musculus; assay: Antiobesity activity in lean normal BALB/c mouse assessed as change in average daily weight at 0.72 mmol/kg/day administered through diet for 7 days relative to time-matched control; assay type: functional
[8] = tested on: Mus musculus; assay: Antiobesity activity in lean normal BALB/c mouse assessed as change in average daily food intake at 0.72 mmol/kg/day administered through diet for 7 days relative to time-matched control; assay type: functional
[9] = tested on: Mus musculus; assay: Toxicity in lean normal BALB/c mouse assessed as overt signs of behavioural changes at equimolar dose of 0.5 mmol/kg galegine administered daily through diet for 7 days; assay type: organism-based; conditions: in vivo, po, 168 h
[10] = tested on: Mus musculus; assay: Antiobesity activity in lean normal BALB/c mouse assessed as change in average daily weight at 0.5 mmol/kg/day administered through diet for 7 days relative to time-matched control; assay type: functional
[11] = tested on: Mus musculus; assay: Antiobesity activity in lean normal BALB/c mouse assessed as change in average daily food intake at 0.5 mmol/kg/day administered through diet for 7 days relative to time-matched control; assay type: functional
[12] = tested on: Mus musculus; assay: Hypoglycemic activity in lean normal BALB/c mouse assessed as blood glucose level at 0.5 mmol/kg/day administered through diet for 7 days relative to time-matched control; assay type: functional
[13] = tested on: Mus musculus; assay: Antiobesity activity in lean normal BALB/c mouse assessed as change in average daily weight at 0.70 mmol/kg/day administered through diet for 7 days relative to time-matched control; assay type: functional
[14] = tested on: Mus musculus; assay: Antiobesity activity in lean normal BALB/c mouse assessed as change in average daily food intake at 0.70 mmol/kg/day administered through diet for 7 days relative to time-matched control; assay type: functional
[15] = tested on: Mus musculus; assay: Hypoglycemic activity in lean normal BALB/c mouse assessed as blood glucose level at 0.70 mmol/kg/day administered through diet for 7 days relative to time-matched control; assay type: functional
[16] = tested on: Mus musculus; assay: Hypoglycemic activity in lean normal BALB/c mouse assessed as blood glucose level at 0.57 mmol/kg/day administered through diet for 7 days relative to time-matched control; assay type: functional
[17] = tested on: Mus musculus; assay: Antiobesity activity in lean normal BALB/c mouse assessed as change in average daily weight at 0.57 mmol/kg/day administered through diet for 7 days relative to time-matched control; assay type: functional
[18] = tested on: Mus musculus; assay: Antiobesity activity in lean normal BALB/c mouse assessed as change in average daily food intake at 0.57 mmol/kg/day administered through diet for 7 days relative to time-matched control; assay type: functional
[19] = tested on: Mus musculus; assay: Antiobesity activity in lean normal BALB/c mouse assessed as change in average daily weight at 0.60 mmol/kg/day administered through diet for 7 days relative to time-matched control; assay type: functional
[20] = tested on: Mus musculus; assay: Antiobesity activity in lean normal BALB/c mouse assessed as change in average daily food intake at 0.60 mmol/kg/day administered through diet for 7 days relative to time-matched control; assay type: functional
[21] = tested on: Mus musculus; assay: Antiobesity activity in lean normal BALB/c mouse assessed as change in average daily food intake at 0.52 mmol/kg/day administered through diet for 7 days relative to time-matched control; assay type: functional
[22] = tested on: Mus musculus; assay: Hypoglycemic activity in lean normal BALB/c mouse assessed as blood glucose level at 0.52 mmol/kg/day administered through diet for 7 days relative to time-matched control; assay type: functional
[23] = tested on: Mus musculus; assay: Antiobesity activity in lean normal BALB/c mouse assessed as change in average daily weight at 0.52 mmol/kg/day administered through diet for 7 days relative to time-matched control; assay type: functional
[24] = tested on: Mus musculus; assay: Antiobesity activity in lean normal BALB/c mouse assessed as change in average daily food intake at 0.62 mmol/kg/day administered through diet for 7 days relative to time-matched control; assay type: functional
[25] = tested on: Mus musculus; assay: Antiobesity activity in lean normal BALB/c mouse assessed as change in average daily weight at 0.62 mmol/kg/day administered through diet for 7 days relative to time-matched control; assay type: functional
[26] = tested on: Mus musculus; assay: Antiobesity activity in lean normal BALB/c mouse assessed as change in average daily food intake at 0.40 mmol/kg/day administered through diet for 7 days relative to time-matched control; assay type: functional
[27] = tested on: Mus musculus; assay: Hypoglycemic activity in lean normal BALB/c mouse assessed as blood glucose level at 0.40 mmol/kg/day administered through diet for 7 days relative to time-matched control; assay type: functional
[28] = tested on: Mus musculus; assay: Antiobesity activity in lean normal BALB/c mouse assessed as change in average daily weight at 0.40 mmol/kg/day administered through diet for 7 days relative to time-matched control; assay type: functional
[29] = tested on: Mus musculus; assay: Hypoglycemic activity in high fat diet-induced obese BALB/c mouse model assessed as blood glucose level at 0.38 mmol/kg/day administered through diet for 28 days relative to time-matched control; assay type: functional
[30] = tested on: Mus musculus; assay: Antiobesity activity in high fat diet-induced obese BALB/c mouse model assessed as change in average daily body weight at 0.38 mmol/kg/day administered through diet for 28 days relative to time-matched control; assay type: functional
[31] = tested on: Mus musculus; assay: Antiobesity activity in ob/ob mouse model assessed as change in average daily weight at 0.26 mmol/kg/day administered through diet for 28 days relative to time-matched control; assay type: functional
[32] = tested on: Mus musculus; assay: Hypoglycemic activity in ob/ob mouse model assessed as blood glucose level at 0.26 mmol/kg/day administered through diet for 28 days relative to time-matched control; assay type: functional
[33] = tested on: Mus musculus; assay: Antiobesity activity in high fat diet-induced obese BALB/c mouse model assessed as change in average daily food intake at 0.38 mmol/kg/day administered through diet for 28 days relative to time-matched control; assay type: functional
[34] = tested on: Mus musculus; assay: Antiobesity activity in ob/ob mouse model assessed as change in average daily food intake at 0.26 mmol/kg/day administered through diet for 28 days relative to time-matched control; assay type: functional
[35] = tested on: Mus musculus; assay: Antiobesity activity in lean normal BALB/c mouse assessed as change in average daily weight at 0.51 mmol/kg/day administered through diet for 7 days relative to time-matched control; assay type: functional
[36] = tested on: Mus musculus; assay: Antiobesity activity in lean normal BALB/c mouse assessed as change in average daily food intake at 0.51 mmol/kg/day administered through diet for 7 days relative to time-matched control; assay type: functional
[37] = tested on: Mus musculus; assay: Hypoglycemic activity in lean normal BALB/c mouse assessed as blood glucose level at 0.51 mmol/kg/day administered through diet for 7 days relative to time-matched control; assay type: functional

CC(C)=CCNC(=N)NC#N
Activity [1]: inactive | Activity [2]: inactive | Activity [3]: inactive | Activity [4]: inactive

CSCCNC(=N)N
Activity [1]: inactive | Activity [2]: inactive | Activity [3]: inactive | Activity [4]: inactive

N=C(N)NCc1cccs1
Activity [5]: 88% | Activity [6]: Stable | Activity [7]: -2.3% | Activity [8]: 5.6% | Activity [9]: Non-toxic

Cc1ccccc1CNC(=N)N
Activity [1]: inactive | Activity [2]: inactive | Activity [3]: inactive | Activity [4]: inactive

CC(C)=CCNC1=NCCN1
Activity [1]: inactive | Activity [2]: inactive | Activity [3]: inactive | Activity [4]: inactive

N=C(N)N1CCc2ccccc2C1
Activity [1]: inactive | Activity [2]: inactive | Activity [3]: inactive | Activity [4]: inactive

CC(C)=CCNC=N
Activity [10]: inactive | Activity [11]: inactive | Activity [12]: inactive

CC(C)=CCNc1ccccn1
Activity [1]: inactive | Activity [2]: inactive | Activity [3]: inactive | Activity [4]: inactive

COc1ccc(CNC(=N)N)c(OC)c1OC
Activity [1]: inactive | Activity [2]: inactive | Activity [3]: inactive | Activity [4]: inactive

N=C(N)NCC1CCCCC1
Activity [1]: inactive | Activity [2]: inactive | Activity [3]: inactive | Activity [4]: inactive

N=C(N)NCc1ccc(C(F)(F)F)cc1
Activity [13]: -10.6% | Activity [14]: -12.7% | Activity [15]: 75% | Activity [9]: Non-toxic

COc1ccc(OC)c(CNC(=N)N)c1
Activity [1]: inactive | Activity [2]: inactive | Activity [3]: inactive | Activity [4]: inactive

N=C(N)NCc1ccccc1Cl
Activity [16]: 82% | Activity [17]: -10.7% | Activity [18]: -21.1% | Activity [9]: Non-toxic

N=C(N)NCc1c(F)cccc1Cl
Activity [1]: inactive | Activity [2]: inactive | Activity [3]: inactive | Activity [4]: inactive

NC(N)=NCc1ccc2c(c1)OCO2
Activity [19]: -2% | Activity [20]: -18% | Activity [9]: Non-toxic

N=C(N)NCC1CCCO1 (configuration not stated)
Activity [1]: inactive | Activity [2]: inactive | Activity [3]: inactive | Activity [4]: inactive

COc1ccc(CNC(=N)N)c(OC)c1
Activity [1]: inactive | Activity [2]: inactive | Activity [3]: inactive | Activity [4]: inactive

CC(C)=CCNc1ncccn1
Activity [1]: inactive | Activity [2]: inactive | Activity [3]: inactive | Activity [4]: inactive

N=C(N)NCCCCNC(=N)N
Activity [1]: inactive | Activity [2]: inactive | Activity [3]: inactive | Activity [4]: inactive

COc1cccc(CNC(=N)N)c1
Activity [1]: inactive | Activity [2]: inactive | Activity [3]: inactive | Activity [4]: inactive

C=CCNC(=N)N
Activity [1]: inactive | Activity [2]: inactive | Activity [3]: inactive | Activity [4]: inactive

COc1cccc(CNC(=N)N)c1OC
Activity [1]: inactive | Activity [2]: inactive | Activity [3]: inactive | Activity [4]: inactive

N=C(N)NCc1ccc(O)cc1
Activity [1]: inactive | Activity [2]: inactive | Activity [3]: inactive | Activity [4]: inactive

N=C(N)NCc1ccccn1
Activity [1]: inactive | Activity [2]: inactive | Activity [3]: inactive | Activity [4]: inactive

N=C(N)NCc1ccccc1C(F)(F)F
Activity [1]: inactive | Activity [2]: inactive | Activity [3]: inactive | Activity [4]: inactive

CC(C)CCNC(=N)N
Activity [1]: inactive | Activity [2]: inactive | Activity [3]: inactive | Activity [4]: inactive

N=C(N)NCc1ccc(Br)cc1
Activity [21]: -36.7% | Activity [22]: 51% | Activity [9]: Non-toxic | Activity [23]: -23.3%

[H]/N=C(/N)N/C(=N/[H])NCCc1ccccc1 [PHENFORMIN]
Activity [6]: Unstable | Activity [24]: -3.4% | Activity [9]: Non-toxic | Activity [25]: -0.14%

Cc1ccc(CNC(=N)N)cc1
Activity [1]: inactive | Activity [2]: inactive | Activity [3]: inactive | Activity [4]: inactive

CSCCCNC(=N)N
Activity [1]: inactive | Activity [2]: inactive | Activity [3]: inactive | Activity [4]: inactive

N=C(N)NCc1ccc(Cl)c(Cl)c1
Activity [26]: -38.3% | Activity [27]: 67% | Activity [28]: -9.9% | Activity [9]: Non-toxic

COc1ccc(CNC(=N)N)cc1OC
Activity [1]: inactive | Activity [2]: inactive | Activity [3]: inactive | Activity [4]: inactive

CC(C)=CCN=C(N)N [GALEGINE]
Activity [10]: -16.6% | Activity [29]: 77% | Activity [30]: -9% | Activity [31]: -7.3% | Activity [11]: -36.3% | Activity [32]: 91% | Activity [33]: -23.6% | Activity [12]: 53% | Activity [34]: -29.2% | Activity [9]: Non-toxic

COc1ccc(CNC(=N)N)cc1
Activity [1]: inactive | Activity [2]: inactive | Activity [3]: inactive | Activity [4]: inactive

N=C(N)NCc1ccccc1Br
Activity [35]: -6% | Activity [36]: -17.7% | Activity [9]: Non-toxic | Activity [37]: 84%

COc1ccccc1CNC(=N)N
Activity [19]: -7% | Activity [20]: -4.1% | Activity [9]: Non-toxic

CCOc1ccc(CNC(=N)N)cc1
Activity [1]: inactive | Activity [2]: inactive | Activity [3]: inactive | Activity [4]: inactive
